Measurements published in the supplement of paper PMC10307832.

Assays:
Experiment in all cases: relative viability (nuclei count vs DMSO), 5 days (fraction); higher = more cells survive
[1] = test system: 201T
Summary of the method: (§1)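 Lung cancer cell lines, seeded in 1536-well plates, were treated the following day by pin tool with a single drug or with five library-drug doses (not always all listed) in √10 steps on top of a fixed anchor-drug dose. Cells were fixed and nuclei stained in one step after 5 days, and nuclei were counted. Relative viability is the nuclei count for treated wells divided by that for vehicle wells, reported as medians of duplicate plates.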

[2] = test system: COR-L23
Summary of the method: as §1

[3] = test system: NCI-H1793
Summary of the method: as §1

[4] = test system: NCI-H2405
Summary of the method: as §1

[5] = test system: NCI-H2023
Summary of the method: as §1

[6] = test system: NCI-H1563
Summary of the method: as §1

[7] = test system: H3255
Summary of the method: as §1

[8] = test system: NCI-H1650
Summary of the method: as §1

[9] = test system: LOU-NH91
Summary of the method: as §1

[10] = test system: NCI-H1734
Summary of the method: as §1

[11] = test system: PC-14
Summary of the method: as §1

[12] = test system: SW 900
Summary of the method: as §1

[13] = test system: NCI-H2347
Summary of the method: as §1

[14] = test system: NCI-H520
Summary of the method: as §1

[15] = test system: NCI-H2170
Summary of the method: as §1

[16] = test system: NCI-H3122
Summary of the method: as §1

[17] = test system: EPLC-272H
Summary of the method: as §1

[18] = test system: NCI-H441
Summary of the method: as §1

[19] = test system: NCI-H322M
Summary of the method: as §1

[20] = test system: HCC-15
Summary of the method: as §1

[21] = test system: UMC-11
Summary of the method: as §1

[22] = test system: NCI-H647
Summary of the method: as §1

Compound `COc1nc(C)cnc1NS(=O)(=O)c1cccnc1-c1ccc(-c2nnco2)cc1` [Zibotentan] + N=C(N)NC(=N)NCCc1ccccc1 [Phenformin] (partner 250 µM) has a relative viability ([1]; first compound 0.08 µM) of 0.477, a relative viability ([1]; first compound 0.253 µM) of 0.451 and a relative viability ([1]; first compound 0.8 µM) of 0.441. For the same compound, the relative viability ([1]; first compound 2.53 µM) was 0.442, the relative viability ([2]; first compound 0.08 µM) was 0.445 and the relative viability ([2]; first compound 0.253 µM) was 0.376. It also gave a relative viability ([2]; first compound 0.8 µM) of 0.506, a relative viability ([2]; first compound 2.53 µM) of 0.416 and a relative viability ([3]; first compound 0.08 µM) of 0.404. It also gave a relative viability ([3]; first compound 0.253 µM) of 0.431, a relative viability ([3]; first compound 0.8 µM) of 0.31 and a relative viability ([3]; first compound 2.53 µM) of 0.406. For the same compound, the relative viability ([4]; first compound 0.08 µM) was 0.422, the relative viability ([4]; first compound 0.253 µM) was 0.39 and the relative viability ([4]; first compound 0.8 µM) was 0.436. For the same compound, the relative viability ([4]; first compound 2.53 µM) was 0.439, the relative viability ([5]; first compound 0.08 µM) was 0.407 and the relative viability ([5]; first compound 0.253 µM) was 0.321. The relative viability ([5]; first compound 0.8 µM) was 0.416, the relative viability ([5]; first compound 2.53 µM) was 0.451 and the relative viability ([6]; first compound 0.08 µM) was 0.67. It also gave a relative viability ([6]; first compound 0.8 µM) of 0.66, a relative viability ([6]; first compound 2.53 µM) of 0.643 and a relative viability ([7]; first compound 0.08 µM) of 0.386. It also gave a relative viability ([7]; first compound 0.253 µM) of 0.326, a relative viability ([7]; first compound 0.8 µM) of 0.307 and a relative viability ([7]; first compound 2.53 µM) of 0.354. The relative viability ([8]; first compound 0.08 µM) was 0.454, the relative viability ([8]; first compound 0.8 µM) was 0.516 and the relative viability ([8]; first compound 2.53 µM) was 0.428. The relative viability ([9]; first compound 0.08 µM) was 0.712, the relative viability ([9]; first compound 0.253 µM) was 0.683 and the relative viability ([9]; first compound 0.8 µM) was 0.798. For the same compound, the relative viability ([9]; first compound 2.53 µM) was 0.819, the relative viability ([10]; first compound 0.08 µM) was 0.361 and the relative viability ([10]; first compound 0.253 µM) was 0.396. For the same compound, the relative viability ([10]; first compound 0.8 µM) was 0.381, the relative viability ([10]; first compound 2.53 µM) was 0.492 and the relative viability ([11]; first compound 0.08 µM) was 0.692. The relative viability ([11]; first compound 0.253 µM) was 0.377, the relative viability ([11]; first compound 0.8 µM) was 0.66 and the relative viability ([11]; first compound 2.53 µM) was 0.601. The relative viability ([12]; first compound 0.08 µM) was 0.557, the relative viability ([12]; first compound 0.253 µM) was 0.502 and the relative viability ([12]; first compound 0.8 µM) was 0.669. The relative viability ([12]; first compound 2.53 µM) was 0.801, the relative viability ([13]; first compound 0.253 µM) was 0.434 and the relative viability ([13]; first compound 0.8 µM) was 0.375. For the same compound, the relative viability ([13]; first compound 2.53 µM) was 0.444, the relative viability ([14]; first compound 0.08 µM) was 0.726 and the relative viability ([14]; first compound 0.253 µM) was 0.58. It also gave a relative viability ([14]; first compound 0.8 µM) of 0.519, a relative viability ([14]; first compound 2.53 µM) of 0.581 and a relative viability ([15]; first compound 0.08 µM) of 0.451. It also gave a relative viability ([15]; first compound 0.253 µM) of 0.389, a relative viability ([15]; first compound 0.8 µM) of 0.436 and a relative viability ([15]; first compound 2.53 µM) of 0.39. It also gave a relative viability ([16]; first compound 0.08 µM) of 0.378, a relative viability ([16]; first compound 0.8 µM) of 0.408 and a relative viability ([16]; first compound 2.53 µM) of 0.373. The relative viability ([17]; first compound 0.08 µM) was 0.287, the relative viability ([17]; first compound 0.253 µM) was 0.296 and the relative viability ([17]; first compound 0.8 µM) was 0.306. For the same compound, the relative viability ([17]; first compound 2.53 µM) was 0.306, the relative viability ([18]; first compound 0.08 µM) was 1.07 and the relative viability ([18]; first compound 0.253 µM) was 0.665. It also gave a relative viability ([18]; first compound 0.8 µM) of 0.926, a relative viability ([18]; first compound 2.53 µM) of 0.895 and a relative viability ([19]; first compound 0.08 µM) of 0.824. For the same compound, the relative viability ([19]; first compound 0.253 µM) was 0.589, the relative viability ([19]; first compound 0.8 µM) was 0.831 and the relative viability ([19]; first compound 2.53 µM) was 0.816. For the same compound, the relative viability ([20]; first compound 0.08 µM) was 0.524, the relative viability ([20]; first compound 0.8 µM) was 0.493 and the relative viability ([20]; first compound 2.53 µM) was 0.451. For the same compound, the relative viability ([21]; first compound 0.08 µM) was 0.318, the relative viability ([21]; first compound 0.253 µM) was 0.291 and the relative viability ([21]; first compound 0.8 µM) was 0.312. For the same compound, the relative viability ([21]; first compound 2.53 µM) was 0.346, the relative viability ([22]; first compound 0.08 µM) was 0.472 and the relative viability ([22]; first compound 0.253 µM) was 0.512. For the same compound, the relative viability ([22]; first compound 0.8 µM) was 0.37 and the relative viability ([22]; first compound 2.53 µM) was 0.531.
Compound `COc1nc(C)cnc1NS(=O)(=O)c1cccnc1-c1ccc(-c2nnco2)cc1` [Zibotentan] + Nc1nc2[nH]cc(CCc3ccc(C(=O)N[C@@H](CCC(=O)O)C(=O)O)cc3)c2c(=O)[nH]1 [Pemetrexed] (partner 0.2 µM) has a relative viability ([1]; first compound 0.08 µM) of 0.327, a relative viability ([1]; first compound 0.253 µM) of 0.355 and a relative viability ([1]; first compound 0.8 µM) of 0.247. The relative viability ([1]; first compound 2.53 µM) was 0.323, the relative viability ([2]; first compound 0.08 µM) was 0.214 and the relative viability ([2]; first compound 0.253 µM) was 0.185. It also gave a relative viability ([2]; first compound 0.8 µM) of 0.207, a relative viability ([2]; first compound 2.53 µM) of 0.204 and a relative viability ([3]; first compound 0.08 µM) of 0.942. It also gave a relative viability ([3]; first compound 0.253 µM) of 0.785, a relative viability ([3]; first compound 0.8 µM) of 0.799 and a relative viability ([3]; first compound 2.53 µM) of 1.08. For the same compound, the relative viability ([4]; first compound 0.08 µM) was 1.15, the relative viability ([4]; first compound 0.253 µM) was 0.975 and the relative viability ([4]; first compound 0.8 µM) was 1.06. For the same compound, the relative viability ([4]; first compound 2.53 µM) was 1.21, the relative viability ([5]; first compound 0.08 µM) was 0.243 and the relative viability ([5]; first compound 0.8 µM) was 0.225. The relative viability ([5]; first compound 2.53 µM) was 0.251, the relative viability ([6]; first compound 0.08 µM) was 0.827 and the relative viability ([6]; first compound 0.253 µM) was 0.703. It also gave a relative viability ([6]; first compound 0.8 µM) of 0.757, a relative viability ([6]; first compound 2.53 µM) of 0.66 and a relative viability ([7]; first compound 0.08 µM) of 0.635. For the same compound, the relative viability ([7]; first compound 0.253 µM) was 0.549, the relative viability ([7]; first compound 0.8 µM) was 0.575 and the relative viability ([7]; first compound 2.53 µM) was 0.56. The relative viability ([8]; first compound 0.08 µM) was 0.364, the relative viability ([8]; first compound 0.8 µM) was 0.387 and the relative viability ([8]; first compound 2.53 µM) was 0.402. It also gave a relative viability ([9]; first compound 0.08 µM) of 0.366, a relative viability ([9]; first compound 0.253 µM) of 0.357 and a relative viability ([9]; first compound 0.8 µM) of 0.369. For the same compound, the relative viability ([9]; first compound 2.53 µM) was 0.408, the relative viability ([10]; first compound 0.08 µM) was 0.404 and the relative viability ([10]; first compound 0.253 µM) was 0.423. It also gave a relative viability ([10]; first compound 0.8 µM) of 0.396, a relative viability ([10]; first compound 2.53 µM) of 0.44 and a relative viability ([11]; first compound 0.08 µM) of 0.143. For the same compound, the relative viability ([11]; first compound 0.253 µM) was 0.12, the relative viability ([11]; first compound 0.8 µM) was 0.129 and the relative viability ([11]; first compound 2.53 µM) was 0.144. For the same compound, the relative viability ([12]; first compound 0.08 µM) was 0.503, the relative viability ([12]; first compound 0.253 µM) was 0.461 and the relative viability ([12]; first compound 0.8 µM) was 0.656. The relative viability ([12]; first compound 2.53 µM) was 0.472, the relative viability ([13]; first compound 0.08 µM) was 0.416 and the relative viability ([13]; first compound 0.253 µM) was 0.463. For the same compound, the relative viability ([13]; first compound 0.8 µM) was 0.465, the relative viability ([13]; first compound 2.53 µM) was 0.471 and the relative viability ([14]; first compound 0.08 µM) was 0.626. The relative viability ([14]; first compound 0.253 µM) was 0.665, the relative viability ([14]; first compound 0.8 µM) was 0.682 and the relative viability ([14]; first compound 2.53 µM) was 0.695. For the same compound, the relative viability ([15]; first compound 0.08 µM) was 0.264, the relative viability ([15]; first compound 0.253 µM) was 0.256 and the relative viability ([15]; first compound 0.8 µM) was 0.445. The relative viability ([15]; first compound 2.53 µM) was 0.248, the relative viability ([16]; first compound 0.08 µM) was 0.204 and the relative viability ([16]; first compound 0.253 µM) was 0.199. It also gave a relative viability ([16]; first compound 0.8 µM) of 0.308, a relative viability ([16]; first compound 2.53 µM) of 0.219 and a relative viability ([17]; first compound 0.253 µM) of 0.319. For the same compound, the relative viability ([17]; first compound 0.8 µM) was 0.309, the relative viability ([17]; first compound 2.53 µM) was 0.405 and the relative viability ([18]; first compound 0.08 µM) was 0.284. The relative viability ([18]; first compound 0.253 µM) was 0.298, the relative viability ([18]; first compound 0.8 µM) was 0.262 and the relative viability ([18]; first compound 2.53 µM) was 0.249. For the same compound, the relative viability ([19]; first compound 0.08 µM) was 0.661, the relative viability ([19]; first compound 0.253 µM) was 0.553 and the relative viability ([19]; first compound 0.8 µM) was 0.526. For the same compound, the relative viability ([19]; first compound 2.53 µM) was 0.65, the relative viability ([20]; first compound 0.08 µM) was 0.221 and the relative viability ([20]; first compound 0.253 µM) was 0.22. For the same compound, the relative viability ([20]; first compound 0.8 µM) was 0.217, the relative viability ([20]; first compound 2.53 µM) was 0.227 and the relative viability ([21]; first compound 0.08 µM) was 0.671. For the same compound, the relative viability ([21]; first compound 0.253 µM) was 0.727, the relative viability ([21]; first compound 0.8 µM) was 0.742 and the relative viability ([21]; first compound 2.53 µM) was 0.859. For the same compound, the relative viability ([22]; first compound 0.08 µM) was 0.165, the relative viability ([22]; first compound 0.253 µM) was 0.171 and the relative viability ([22]; first compound 0.8 µM) was 0.181. The relative viability ([22]; first compound 2.53 µM) was 0.201.
